The text below walks through data of patent US20100120858A1, “Piperidine Derivatives” (Pfizer Inc., priority 2006, published 2010).

Where a name gives a salt, the structure may show the parent alone.

The target in data set [1] is human norepinephrine transporter (Homo sapiens, UniProt P23975). Nature of the data set: Human norepinephrine (hNET) receptor binding, [125I]-RTI-55. As to conditions: membranes of HEK-293 cells transfected with human norepinephrine transporter cDNA; 50 pM [125I]-RTI-55; IC50 converted by Cheng-Prusoff. In outline: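 Membranes from HEK-293 cells expressing human NET, incubated 90 min at room temperature with 50 pM [125I]-RTI-55 and compound (10^−5 to 10^−12 M) in Krebs-HEPES pH 7.4. Nonspecific binding defined with 10 μM desipramine; filter-bound counts gave IC50, converted to Ki by Cheng-Prusoff.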

Data set [2] has as its target human serotonin transporter (Homo sapiens, UniProt P31645). In words: Human serotonin (hSERT) receptor binding, [125I]-RTI-55. As to conditions: membranes of HEK-293 cells transfected with human serotonin transporter cDNA, IC50 converted by Cheng-Prusoff. Summed up:
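Membranes from HEK-293 cells expressing human SERT were incubated 90 min at room temperature in Krebs-HEPES buffer pH 7.4 with […] [125I]-RTI-55 and compound (10^−5 to 10^−12 M), in duplicate. Nonspecific binding defined with 10 μM citalopram; IC50 converted to Ki by Cheng-Prusoff.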

Sequence of human serotonin transporter (P31645 whole entry): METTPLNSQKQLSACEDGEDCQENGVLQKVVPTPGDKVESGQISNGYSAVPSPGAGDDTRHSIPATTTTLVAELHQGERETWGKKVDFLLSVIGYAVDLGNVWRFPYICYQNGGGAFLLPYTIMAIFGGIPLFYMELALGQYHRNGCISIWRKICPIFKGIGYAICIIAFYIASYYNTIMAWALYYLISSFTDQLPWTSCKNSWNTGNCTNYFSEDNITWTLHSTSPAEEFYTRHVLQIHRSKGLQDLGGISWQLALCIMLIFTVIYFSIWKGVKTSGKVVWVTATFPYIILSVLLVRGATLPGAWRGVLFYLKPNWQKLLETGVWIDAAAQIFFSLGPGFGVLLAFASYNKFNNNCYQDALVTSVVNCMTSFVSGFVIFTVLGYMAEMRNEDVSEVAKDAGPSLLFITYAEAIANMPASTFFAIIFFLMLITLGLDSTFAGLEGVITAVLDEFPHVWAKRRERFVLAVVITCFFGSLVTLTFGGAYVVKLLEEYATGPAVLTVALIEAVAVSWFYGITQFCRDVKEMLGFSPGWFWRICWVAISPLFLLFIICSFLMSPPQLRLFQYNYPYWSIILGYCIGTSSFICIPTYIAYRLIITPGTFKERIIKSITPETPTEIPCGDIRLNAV
Sequence of human norepinephrine transporter (P23975 whole entry): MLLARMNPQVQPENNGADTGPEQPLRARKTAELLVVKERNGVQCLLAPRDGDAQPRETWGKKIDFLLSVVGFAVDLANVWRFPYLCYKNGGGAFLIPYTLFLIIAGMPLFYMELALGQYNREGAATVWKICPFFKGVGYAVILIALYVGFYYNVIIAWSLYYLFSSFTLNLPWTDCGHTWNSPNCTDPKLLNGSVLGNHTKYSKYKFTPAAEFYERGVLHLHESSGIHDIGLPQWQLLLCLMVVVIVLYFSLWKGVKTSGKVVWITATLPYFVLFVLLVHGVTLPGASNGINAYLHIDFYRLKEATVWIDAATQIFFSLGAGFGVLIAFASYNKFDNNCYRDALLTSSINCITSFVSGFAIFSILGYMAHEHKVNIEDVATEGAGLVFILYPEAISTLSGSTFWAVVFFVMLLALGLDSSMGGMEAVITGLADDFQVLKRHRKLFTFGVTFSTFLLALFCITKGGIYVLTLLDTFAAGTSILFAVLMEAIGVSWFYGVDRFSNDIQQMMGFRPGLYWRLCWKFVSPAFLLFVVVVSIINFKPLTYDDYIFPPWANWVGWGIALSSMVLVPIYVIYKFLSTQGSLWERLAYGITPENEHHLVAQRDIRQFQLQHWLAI

Usually Ki stands for a dissociation constant, usually derived from enzyme kinetics or from competition with a known ligand. Read a high Ki as weaker binding. In general, melting point refers to the temperature of the solid-liquid transition. As to `Fc1ccc(Oc2ncccc2OC[C@@H]2CCCNC2)cc1F.O=C(O)/C=C/C(=O)O` [Example 63, (R)-2-(3,4-difluoro-phenoxy)-3-(piperidin-3-ylmethoxy)-pyridine fumaric acid], the melting point was 130 to 131 °C. This compound also displayed a Ki in data set [1] of 140 nM. The Ki in data set [2] was found to be 803 nM.

Turning to `CC(C)c1ccccc1Oc1ncccc1OC[C@H]1CCCNC1.O=C(O)/C=C/C(=O)O` [Example 75, (S)-2-(2-isopropyl-phenoxy)-3-(piperidin-3-ylmethoxy)-pyridine fumaric acid], the melting point was 112 to 114 °C (dec.). Moreover, the Ki in data set [1] was 760 nM. For the same compound, in data set [2], the Ki is over 10000 nM.

In the case of `Cl.c1ccc(OC2CCCCC2)c(OC[C@H]2CCCNC2)c1` [Example 101, (S)-3-(2-cyclohexyloxy-phenoxymethyl)-piperidine hydrochloride], the melting point is 149 to 150 °C. The compound also came in with a Ki in data set [1] of 20 nM. The compound further returned a Ki in data set [2] of over 9700 nM.

For the compound `O=C(O)/C=C/C(=O)O.c1ccc(Oc2ncccc2OC[C@@H]2CCCNC2)cc1` [Example 94, (R)-2-phenoxy-3-(piperidin-3-ylmethoxy)-pyridine fumaric acid], the melting point is 141 to 143 °C (dec.). Besides, the Ki in data set [1] was determined as 410 nM. Besides, the affinity in data set [2], expressed as Ki, was 4700 nM.

`Cc1cc(Oc2ncccc2OC[C@H]2CCCNC2)ccc1F.O=C(O)/C=C/C(=O)O` [Example 67, (S)-2-(4-fluoro-3-methyl-phenoxy)-3-(piperidin-3-ylmethoxy)-pyridine fumaric acid] registered a melting point of 136 to 138 °C. Moreover, in data set [1], the affinity corresponds to a Ki of 6 nM. In data set [2], affinity was put at a Ki of 3300 nM.

For the compound `CC(C)COc1ccccc1OCC1CCCNC1.Cl` (stereo not drawn) [Example 102, 3-(2-isobutoxy-phenoxymethyl)-piperidine hydrochloride], the melting point stood at 162 °C. In data set [1], this compound had a Ki of 32 nM. This compound also came in with a Ki in data set [2] of 3960 nM.

Take `CCOc1ncccc1OC(c1ccccc1)C1CCCNC1` (single isomer, unassigned; stereoisomer b) (as salt: fumaric acid salt) [Example 91, 2-ethoxy-3-[((R or S)-phenyl)-((S)-piperidin-3-yl)-methoxy]-pyridine fumaric acid, stereoisomer B]: the melting point was 58 to 68 °C (dec.).

`Fc1cc(Oc2ncccc2OC[C@H]2CCCNC2)ccc1Cl.O=C(O)/C=C/C(=O)O` [Example 69, (S)-2-(4-chloro-3-fluoro-phenoxy)-3-(piperidin-3-ylmethoxy)-pyridine fumaric acid] had a melting point of 150 to 151 °C. The compound further displayed a Ki in data set [1] of 4 nM. The compound further had a Ki in data set [2] of 5500 nM.

In turn, `Fc1ccc(Oc2ncccc2OC[C@H]2CCCNC2)cc1F.O=C(O)/C=C/C(=O)O` [Example 60, (S)-2-(3,4-difluoro-phenoxy)-3-(piperidin-3-ylmethoxy)-pyridine fumaric acid] came in with a melting point of 148 to 150 °C. The compound also gave a Ki in data set [1] of 2 nM. This compound also gave a Ki in data set [2] of 6600 nM.

Compound `Fc1ccc(OC[C@H]2CCCNC2)c(Oc2ccccc2)c1.O=C(O)/C=C/C(=O)O` [Example 46, (S)-3-(4-fluoro-2-phenoxy-phenoxymethyl)-piperidine fumaric acid] yielded a melting point of 128 to 130 °C. This compound returned a Ki in data set [1] of 2 nM. Further, the Ki in data set [2] was found to be 320 nM.

For `Cl.c1ccc(COc2ccccc2OC[C@H]2CCCNC2)cc1` [Example 99, (S)-3-(2-benzyloxy-phenoxymethyl)-piperidine hydrochloride], the melting point was 137 to 140 °C (dec.). For the same compound, the affinity in data set [1], expressed as Ki, was 11 nM. In addition, the affinity in data set [2], expressed as Ki, was 4800 nM.

As to `Fc1cccc(F)c1Oc1ncccc1OC[C@H]1CCCNC1.O=C(O)/C=C/C(=O)O` [Example 72, (S)-2-(2,6-difluoro-phenoxy)-3-(piperidin-3-ylmethoxy)-pyridine fumaric acid], the melting point was 182 to 183 °C (dec.). In data set [1], this compound had an inhibition constant (Ki) of 2 nM. This compound came in with a Ki in data set [2] of 3300 nM.

Regarding `Fc1ccc(Oc2ncccc2OC[C@H]2CCCNC2)cc1Cl.O=C(O)/C=C/C(=O)O` [Example 66, (S)-2-(3-chloro-4-fluoro-phenoxy)-3-(piperidin-3-ylmethoxy)-pyridine fumaric acid], the melting point is 143 to 144 °C (dec.). In addition, the affinity in data set [1] corresponds to a Ki of 20 nM. In addition, in data set [2], the Ki was determined as 2900 nM.

Compound `Clc1cccc(Oc2ncccc2OC[C@H]2CCCNC2)c1.O=C(O)/C=C/C(=O)O` [Example 59, (S)-2-(3-chloro-phenoxy)-3-(piperidin-3-ylmethoxy)-pyridine fumaric acid] returned a melting point of 128 to 129 °C. In addition, the Ki in data set [1] was found to be 4 nM. The same compound yielded a Ki in data set [2] of 6300 nM.

Turning to `Cc1ccccc1Oc1ncccc1OC[C@H]1CCCNC1.O=C(O)/C=C/C(=O)O` [Example 73, (S)-2-(2-methyl-phenoxy)-3-(piperidin-3-ylmethoxy)-pyridine fumaric acid], the melting point is 165 to 167 °C (dec.). Also, the Ki in data set [1] was 4 nM. For the same compound, the Ki in data set [2] was over 10000 nM.

Compound `Fc1ccc(Oc2ncccc2OC(c2ccccc2)C2CCCNC2)cc1` (single isomer, unassigned; stereoisomer a) (as salt: fumaric acid salt) (hydrate or solvate) [Example 88, 2-(4-fluoro-phenoxy)-3-[((R or S)-phenyl)-((S)-piperidin-3-yl)-methoxy]-pyridine fumaric acid, stereoisomer A] yielded a melting point of 191 to 192 °C.

In the case of `Fc1ccc(Oc2ncccc2OC[C@H]2CCCNC2)c(Cl)c1.O=C(O)/C=C/C(=O)O` [Example 71, (S)-2-(2-chloro-4-fluoro-phenoxy)-3-(piperidin-3-ylmethoxy)-pyridine fumaric acid], the melting point was 189 to 190 °C (dec.). Also, affinity in data set [1] was put at a Ki of 2 nM. Besides, the affinity in data set [2] corresponds to a Ki of 6600 nM.

Regarding `Cc1ccc(Cl)c(Oc2ncccc2OC[C@H]2CCCNC2)c1.O=C(O)/C=C/C(=O)O` [Example 76, (S)-2-(2-chloro-5-methyl-phenoxy)-3-(piperidin-3-ylmethoxy)-pyridine fumaric acid], the melting point is 183 to 184 °C (dec.). For the same compound, the Ki in data set [1] came to 4 nM. In addition, the affinity in data set [2] corresponds to a Ki of 4800 nM.

Take `O=C(O)/C=C/C(=O)O.c1ccc(CCOc2ncccc2OC[C@H]2CCCNC2)cc1` [Example 82, (S)-2-phenethyloxy-3-(piperidin-3-ylmethoxy)-pyridine fumaric acid]: the melting point was 146 to 148 °C (dec.). In addition, affinity in data set [1] was put at a Ki of 210 nM. Moreover, the Ki in data set [2] stood at 3700 nM.

Take `CCOc1ccccc1OC(c1ccccc1)[C@H]1CCCNC1` (mixture of isomers) (as salt: fumaric acid salt) (hydrate or solvate) [Example 106, (S)-3-[(2-ethoxy-phenoxy)-(R,S)-phenyl-methyl]-piperidine fumaric acid]: the melting point was 82 to 88 °C (dec.).

`Cc1ccc(Oc2ncccc2OC[C@H]2CCCNC2)cc1C.O=C(O)/C=C/C(=O)O` [Example 65, (S)-2-(3,4-dimethyl-phenoxy)-3-(piperidin-3-ylmethoxy)-pyridine fumaric acid] registered a melting point of 169 to 170 °C. The compound also yielded a Ki in data set [1] of 7 nM. Moreover, in data set [2], the affinity corresponds to a Ki of 2200 nM.
